According to ChEMBL document CHEMBL4251622, “Design, synthesis, and biological evaluation of polo-like kinase 1/eukaryotic elongation factor 2 kinase (PLK1/EEF2K) dual inhibitors for regulating breast cancer cells apoptosis and autophagy” (Eur J Med Chem, 2018):
Active and inactive are the calls of the source. The rule behind the calls is not given here.

What was measured:
[1] = molecular target: Rho-associated protein kinase 1 (Homo sapiens) (UniProt Q13464); assay: Inhibition of wild-type human partial length ROCK1 (M1 to R415 residues) expressed in mammalian expression system assessed as residual activity at 1 uM by Kinomescan method relative to control
Rho-associated protein kinase 1 (Homo sapiens), sequence (Q13464 2-1354 limits assumed): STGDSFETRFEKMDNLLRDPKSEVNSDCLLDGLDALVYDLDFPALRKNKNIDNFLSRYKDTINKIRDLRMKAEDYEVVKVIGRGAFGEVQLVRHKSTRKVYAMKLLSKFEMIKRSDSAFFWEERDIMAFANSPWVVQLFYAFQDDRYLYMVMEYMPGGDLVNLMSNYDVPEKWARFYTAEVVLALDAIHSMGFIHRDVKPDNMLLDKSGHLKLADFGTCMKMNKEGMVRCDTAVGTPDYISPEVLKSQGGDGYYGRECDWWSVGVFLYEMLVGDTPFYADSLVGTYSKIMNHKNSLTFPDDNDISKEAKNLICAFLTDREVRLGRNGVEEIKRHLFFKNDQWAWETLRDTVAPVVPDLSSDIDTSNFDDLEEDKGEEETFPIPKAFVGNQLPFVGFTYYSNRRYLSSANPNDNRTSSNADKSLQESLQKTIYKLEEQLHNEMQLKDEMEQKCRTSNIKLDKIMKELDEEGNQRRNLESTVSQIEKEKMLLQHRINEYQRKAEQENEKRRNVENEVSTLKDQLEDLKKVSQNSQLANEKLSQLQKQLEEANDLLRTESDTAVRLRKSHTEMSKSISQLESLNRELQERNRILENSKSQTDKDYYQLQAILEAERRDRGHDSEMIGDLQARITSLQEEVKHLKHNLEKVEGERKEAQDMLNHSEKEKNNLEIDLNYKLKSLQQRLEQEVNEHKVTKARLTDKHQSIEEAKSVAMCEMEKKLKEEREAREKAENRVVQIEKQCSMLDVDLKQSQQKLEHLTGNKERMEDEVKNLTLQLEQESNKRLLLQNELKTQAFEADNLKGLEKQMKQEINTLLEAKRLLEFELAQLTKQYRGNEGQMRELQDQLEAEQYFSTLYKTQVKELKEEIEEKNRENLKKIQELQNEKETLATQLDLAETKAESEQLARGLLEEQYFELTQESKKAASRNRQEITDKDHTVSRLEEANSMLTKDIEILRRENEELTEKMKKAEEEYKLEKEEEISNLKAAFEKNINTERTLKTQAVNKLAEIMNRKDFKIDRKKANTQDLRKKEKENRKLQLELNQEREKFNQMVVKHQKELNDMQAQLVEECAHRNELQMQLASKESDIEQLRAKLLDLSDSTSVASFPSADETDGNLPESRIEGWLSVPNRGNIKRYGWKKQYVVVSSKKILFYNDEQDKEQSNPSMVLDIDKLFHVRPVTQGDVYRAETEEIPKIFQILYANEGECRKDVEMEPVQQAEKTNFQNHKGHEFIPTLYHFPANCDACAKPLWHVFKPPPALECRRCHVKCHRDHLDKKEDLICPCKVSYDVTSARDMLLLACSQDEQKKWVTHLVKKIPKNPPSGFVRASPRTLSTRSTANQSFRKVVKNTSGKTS

BT-483 [2] = assay: Induction of apoptosis in human BT-483 cells assessed as live cells at 10 uM by Annexin V-FITC/propidium iodide staining based flow cytometry (reference value: 87.5%); type: functional
[3] = molecular target: TGF-beta receptor type-1 (Homo sapiens) (UniProt P36897); assay: Inhibition of wild-type human partial length TGFBR1 (D179 to M503 residues) expressed in bacterial expression system assessed as residual activity at 1 uM by Kinomescan method relative to control
[4] = molecular target: T1, Eukaryotic elongation factor 2 kinase (Homo sapiens) (UniProt O00418); assay: Inhibition of EEF2K-meidated EEF2 phosphorylation in human BT-483 cells at 5 to 10 uM by Western blot analysis; type: cell-based
T1 sequence (whole entry): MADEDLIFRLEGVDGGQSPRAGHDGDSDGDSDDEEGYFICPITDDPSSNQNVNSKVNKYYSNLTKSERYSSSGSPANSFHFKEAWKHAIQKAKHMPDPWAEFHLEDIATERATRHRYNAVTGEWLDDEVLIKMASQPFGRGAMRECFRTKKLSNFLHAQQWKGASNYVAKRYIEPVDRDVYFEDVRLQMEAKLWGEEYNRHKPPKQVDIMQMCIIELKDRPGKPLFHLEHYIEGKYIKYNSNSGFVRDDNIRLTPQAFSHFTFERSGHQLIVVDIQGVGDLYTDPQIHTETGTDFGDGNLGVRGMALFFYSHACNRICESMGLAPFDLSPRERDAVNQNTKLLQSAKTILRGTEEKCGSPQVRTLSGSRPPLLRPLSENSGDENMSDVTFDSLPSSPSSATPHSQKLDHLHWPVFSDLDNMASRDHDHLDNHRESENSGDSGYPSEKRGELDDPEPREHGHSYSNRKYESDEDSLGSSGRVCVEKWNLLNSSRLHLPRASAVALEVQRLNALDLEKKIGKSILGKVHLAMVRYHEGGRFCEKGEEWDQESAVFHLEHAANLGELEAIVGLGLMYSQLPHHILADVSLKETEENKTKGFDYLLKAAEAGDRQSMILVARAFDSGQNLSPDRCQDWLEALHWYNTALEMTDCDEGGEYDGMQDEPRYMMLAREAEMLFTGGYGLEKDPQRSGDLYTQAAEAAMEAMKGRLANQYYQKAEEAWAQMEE

[5] = system: Serine/threonine-protein kinase B-raf (Homo sapiens), P15056 [V600E]; assay: Inhibition of human partial length BRAF V600E mutant (S429 to E741 residues) expressed in mammalian expression system assessed as residual activity at 1 uM by Kinomescan method relative to control
[6] = molecular target: ALK tyrosine kinase receptor (Homo sapiens) (UniProt Q9UM73); assay: Inhibition of wild-type human partial length ALK (I1088 to E1409 residues) expressed in mammalian expression system assessed as residual activity at 1 uM by Kinomescan method relative to control
BT-483 [7] = assay: Cell cycle arrest in human BT-483 cells assessed as accumulation at G2/M phase at 5 to 10 uM after 24 to 72 hrs; type: functional, cell-based
[8] = molecular target: Macrophage colony-stimulating factor 1 receptor (Homo sapiens) (UniProt P07333); assay: Inhibition of wild-type human partial length CSF1R (I564 to S939 residues) expressed in bacterial expression system assessed as residual activity at 1 uM by Kinomescan method relative to control
BT-483 [9] = assay: Effect on Fas protein expression in human BT-483 cells at 5 to 10 uM by Western blot analysis; type: functional, cell-based
[10] = molecular target: Phosphatidylinositol 4,5-bisphosphate 3-kinase catalytic subunit gamma isoform (Homo sapiens) (UniProt P48736); assay: Inhibition of wild-type human partial length PIK3CG (S144 to A1102 residues) expressed in mammalian expression system assessed as residual activity at 1 uM by Kinomescan method relative to control
Phosphatidylinositol 4,5-bisphosphate 3-kinase catalytic subunit gamma isoform (Homo sapiens), sequence (P48736 whole entry, looked up, the tested form may be a part, canonical isoform): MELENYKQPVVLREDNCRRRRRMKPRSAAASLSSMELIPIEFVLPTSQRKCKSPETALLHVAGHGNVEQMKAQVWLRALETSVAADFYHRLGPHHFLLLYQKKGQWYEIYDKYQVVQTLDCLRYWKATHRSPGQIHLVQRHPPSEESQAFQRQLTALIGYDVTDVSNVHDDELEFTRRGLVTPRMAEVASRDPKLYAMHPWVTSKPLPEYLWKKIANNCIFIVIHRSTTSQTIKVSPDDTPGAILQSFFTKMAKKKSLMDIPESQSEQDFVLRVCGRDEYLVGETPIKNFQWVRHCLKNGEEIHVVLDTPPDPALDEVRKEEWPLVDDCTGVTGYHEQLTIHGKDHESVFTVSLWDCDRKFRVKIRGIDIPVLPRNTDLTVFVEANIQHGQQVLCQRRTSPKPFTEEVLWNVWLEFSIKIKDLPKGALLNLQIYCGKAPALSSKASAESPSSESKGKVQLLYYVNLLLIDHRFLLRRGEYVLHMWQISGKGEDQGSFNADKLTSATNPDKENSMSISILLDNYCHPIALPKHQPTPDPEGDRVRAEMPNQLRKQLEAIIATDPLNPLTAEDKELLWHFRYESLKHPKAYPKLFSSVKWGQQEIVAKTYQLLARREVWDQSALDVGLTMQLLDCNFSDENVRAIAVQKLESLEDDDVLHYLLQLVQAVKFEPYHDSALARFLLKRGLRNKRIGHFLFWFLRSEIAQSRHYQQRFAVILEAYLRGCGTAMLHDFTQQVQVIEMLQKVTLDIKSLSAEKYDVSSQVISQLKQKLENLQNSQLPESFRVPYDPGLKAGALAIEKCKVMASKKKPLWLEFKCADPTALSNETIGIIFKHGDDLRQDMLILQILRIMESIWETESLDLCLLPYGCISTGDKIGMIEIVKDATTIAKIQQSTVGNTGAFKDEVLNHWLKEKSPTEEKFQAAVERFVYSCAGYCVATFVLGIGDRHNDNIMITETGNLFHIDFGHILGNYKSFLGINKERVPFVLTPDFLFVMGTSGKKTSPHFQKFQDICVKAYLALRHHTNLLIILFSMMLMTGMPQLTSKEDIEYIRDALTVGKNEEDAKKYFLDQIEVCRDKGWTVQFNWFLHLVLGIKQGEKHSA

BT-483 [11] = assay: Effect on total EEF2K protein expression in human BT-483 cells at 5 to 10 uM by Western blot analysis; type: ADME, cell-based; details: bt-483, 10 µM
[12] = molecular target: Mitogen-activated protein kinase kinase kinase 9 (Homo sapiens) (UniProt P80192); assay: Inhibition of wild-type human partial length MLK1 (V88 to W426 residues) expressed in bacterial expression system assessed as residual activity at 1 uM by Kinomescan method relative to control
[13] = system: Tyrosine-protein kinase ABL1 (Homo sapiens), P00519 [E255K]; assay: Inhibition of human phosphorylated ABL1 E255K mutant (S229 to K512 residues) expressed in mammalian expression system assessed as residual activity at 1 uM by Kinomescan method relative to control
Tyrosine-protein kinase ABL1 (Homo sapiens), P00519 [E255K], sequence (P00519 whole entry E255K, the tested form may be a part): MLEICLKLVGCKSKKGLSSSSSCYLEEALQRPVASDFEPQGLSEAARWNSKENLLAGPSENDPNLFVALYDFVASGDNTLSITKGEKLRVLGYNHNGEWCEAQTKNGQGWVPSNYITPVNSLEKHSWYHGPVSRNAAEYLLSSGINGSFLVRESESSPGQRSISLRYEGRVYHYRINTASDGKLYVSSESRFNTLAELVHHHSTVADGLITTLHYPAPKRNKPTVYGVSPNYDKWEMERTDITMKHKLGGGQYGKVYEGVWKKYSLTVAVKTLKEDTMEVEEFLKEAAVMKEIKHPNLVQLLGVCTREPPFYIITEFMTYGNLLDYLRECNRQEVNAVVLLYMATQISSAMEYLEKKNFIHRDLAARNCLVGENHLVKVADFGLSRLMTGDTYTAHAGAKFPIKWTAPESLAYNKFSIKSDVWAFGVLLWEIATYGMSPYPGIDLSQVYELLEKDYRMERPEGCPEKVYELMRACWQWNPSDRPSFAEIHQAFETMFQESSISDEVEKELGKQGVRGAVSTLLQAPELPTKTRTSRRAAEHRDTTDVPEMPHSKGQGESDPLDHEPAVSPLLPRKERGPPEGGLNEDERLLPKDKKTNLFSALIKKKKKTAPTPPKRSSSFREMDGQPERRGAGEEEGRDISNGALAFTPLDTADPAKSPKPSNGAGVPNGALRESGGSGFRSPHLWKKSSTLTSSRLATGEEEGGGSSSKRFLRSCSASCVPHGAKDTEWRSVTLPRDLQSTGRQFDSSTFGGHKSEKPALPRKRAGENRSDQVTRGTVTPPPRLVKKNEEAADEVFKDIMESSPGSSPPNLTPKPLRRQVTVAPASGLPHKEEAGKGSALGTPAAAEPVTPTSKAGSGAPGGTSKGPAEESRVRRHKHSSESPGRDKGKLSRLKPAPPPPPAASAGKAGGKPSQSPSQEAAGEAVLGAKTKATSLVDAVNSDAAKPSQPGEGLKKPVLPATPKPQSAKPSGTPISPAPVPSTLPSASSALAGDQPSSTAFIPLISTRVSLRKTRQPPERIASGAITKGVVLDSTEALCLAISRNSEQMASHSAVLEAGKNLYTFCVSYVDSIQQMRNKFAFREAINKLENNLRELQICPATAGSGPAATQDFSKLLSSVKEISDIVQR

[14] = molecular target: Serine/threonine-protein kinase PLK1 (Homo sapiens, UniProt P53350); assay: Inhibition of PLK1 autophosphorylation in human BT-483 cells at 5 to 10 uM by Western blot analysis; type: cell-based
Serine/threonine-protein kinase PLK1, sequence (P53350 whole entry, the tested form may be a part): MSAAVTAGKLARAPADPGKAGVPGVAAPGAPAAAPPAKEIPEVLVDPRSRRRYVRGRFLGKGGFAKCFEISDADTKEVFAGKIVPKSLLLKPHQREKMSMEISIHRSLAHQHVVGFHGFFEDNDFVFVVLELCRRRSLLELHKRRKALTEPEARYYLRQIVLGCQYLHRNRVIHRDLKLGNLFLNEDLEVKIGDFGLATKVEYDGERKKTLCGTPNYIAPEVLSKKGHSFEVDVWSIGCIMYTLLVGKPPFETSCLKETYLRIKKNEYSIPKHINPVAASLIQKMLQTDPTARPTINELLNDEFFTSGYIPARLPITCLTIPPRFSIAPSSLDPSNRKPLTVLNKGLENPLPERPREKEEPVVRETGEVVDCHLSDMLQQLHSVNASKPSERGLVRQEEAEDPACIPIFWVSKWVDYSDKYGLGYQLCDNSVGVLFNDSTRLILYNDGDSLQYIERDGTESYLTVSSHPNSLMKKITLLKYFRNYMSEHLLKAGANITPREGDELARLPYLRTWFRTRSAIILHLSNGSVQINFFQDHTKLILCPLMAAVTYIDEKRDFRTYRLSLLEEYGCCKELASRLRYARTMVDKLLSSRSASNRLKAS

[15] = molecular target: 3-phosphoinositide-dependent protein kinase 1 (Homo sapiens) (UniProt O15530); assay: Inhibition of wild-type human full length PDPK1 (M1 to Q556 residues) expressed in bacterial expression system assessed as residual activity at 1 uM by Kinomescan method relative to control
[16] = molecular target: Serine/threonine-protein kinase Chk1 (Homo sapiens) (UniProt O14757); assay: Inhibition of wild-type human partial length CHEK1 (M1 to G289 residues) expressed in bacterial expression system assessed as residual activity at 1 uM by Kinomescan method relative to control
BT-483 [17] = assay: Induction of apoptosis in human BT-483 cells assessed as apoptotic nuclear fragment formation at 5 uM after 24 hrs by fluorescence microscopic method; type: functional, cell-based
[18] = molecular target: Mitogen-activated protein kinase kinase kinase 4 (Homo sapiens) (UniProt Q9Y6R4); assay: Inhibition of wild-type human partial length MAP3K4 (G1319 to E1608 residues) expressed in bacterial expression system assessed as residual activity at 1 uM by Kinomescan method relative to control
[19] = molecular target: Cyclin-dependent kinase 9 (Homo sapiens) (UniProt P50750); assay: Inhibition of wild-type human full length CDK9 (M1 to F372 residues) expressed in bacterial expression system assessed as residual activity at 1 uM by Kinomescan method relative to control
[20] = molecular target: RAF proto-oncogene serine/threonine-protein kinase (Homo sapiens) (UniProt P04049); assay: Inhibition of wild-type human partial length RAF1 (I330 to T640 residues) expressed in bacterial expression system assessed as residual activity at 1 uM by Kinomescan method relative to control
[21] = molecular target: Serine/threonine-protein kinase DCLK1 (Homo sapiens) (UniProt O15075); assay: Inhibition of wild-type human partial length DCAMKL1 (L270 to A662 residues) expressed in mammalian expression system assessed as residual activity at 1 uM by Kinomescan method relative to control
Serine/threonine-protein kinase DCLK1 (Homo sapiens), sequence (O15075 whole entry, the tested form may be a part): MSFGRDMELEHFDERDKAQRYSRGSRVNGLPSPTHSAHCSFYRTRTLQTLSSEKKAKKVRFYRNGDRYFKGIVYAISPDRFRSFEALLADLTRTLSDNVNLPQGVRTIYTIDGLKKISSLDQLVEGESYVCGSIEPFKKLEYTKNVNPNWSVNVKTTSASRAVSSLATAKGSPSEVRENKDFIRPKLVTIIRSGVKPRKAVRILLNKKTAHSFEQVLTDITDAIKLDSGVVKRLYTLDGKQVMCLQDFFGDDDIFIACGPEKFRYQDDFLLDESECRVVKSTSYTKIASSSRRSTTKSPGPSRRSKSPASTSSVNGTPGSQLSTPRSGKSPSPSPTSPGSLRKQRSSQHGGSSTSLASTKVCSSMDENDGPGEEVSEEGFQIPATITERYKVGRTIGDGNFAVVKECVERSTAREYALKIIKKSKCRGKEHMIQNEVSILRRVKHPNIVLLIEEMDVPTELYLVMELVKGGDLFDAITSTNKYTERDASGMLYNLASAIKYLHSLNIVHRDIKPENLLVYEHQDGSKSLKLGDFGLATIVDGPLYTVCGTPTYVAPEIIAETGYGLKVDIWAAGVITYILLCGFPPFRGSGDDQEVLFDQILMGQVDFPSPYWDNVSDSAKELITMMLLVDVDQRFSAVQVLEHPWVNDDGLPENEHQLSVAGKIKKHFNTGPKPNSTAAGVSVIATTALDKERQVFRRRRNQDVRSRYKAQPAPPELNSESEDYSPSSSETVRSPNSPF

[22] = molecular target: Mitogen-activated protein kinase 11 (Homo sapiens) (UniProt Q15759); assay: Inhibition of wild-type human full length p38-beta (M1 to Q364 residues) expressed in bacterial expression system assessed as residual activity at 1 uM by Kinomescan method relative to control

CCNc1cc(-c2ccc(NC(=O)Nc3cccc(Cl)c3)cc2C(F)(F)F)ccn1
Activity [1]: 70%
Activity (BT-483 [2]): 78.2%
Activity [3]: 86%
inhibition [4]: Active
Activity [5]: 88%
Activity [6]: 88%
Activity (BT-483 [7]): Active
Activity [8]: 85%
Activity (BT-483 [9]): inactive
Activity [10]: 74%
Activity (BT-483 [11]): Non-Toxic
Activity [12]: 67%
Activity [13]: 82%
inhibition [14]: Active
Activity [15]: 63%
Activity [16]: 81%
Activity (BT-483 [17]): Active
Activity [18]: 85%
Activity [19]: 91%
Activity [20]: 64%
Activity [21]: 98%
Activity [22]: 60%
